ChEMBL document CHEMBL2311511, “Dipeptide cis-cyclo(Leucyl-Tyrosyl) produced by sponge associated Penicillium sp. F37 inhibits biofilm formation of the pathogenic Staphylococcus epidermidis” (Bioorg Med Chem Lett, 2013)
Activity calls are given as the source filed them. The calls are words filed in the database; no cut-off is given here.

Experiments:
[1] = system: Staphylococcus epidermidis; test: Inhibition of Staphylococcus epidermidis ATCC 35984 biofilm formation at 1 mg/ml; type: functional
[2] = system: Staphylococcus epidermidis; test: Inhibition of Staphylococcus epidermidis ATCC 35984 biofilm formation at 0.25 mg/ml; type: functional
[3] = system: Staphylococcus epidermidis; test: Inhibition of Staphylococcus epidermidis ATCC 35984 biofilm formation at 1 mg/ml after 24 hrs by scanning electron microscopy; type: functional, organism-based
[4] = system: Staphylococcus epidermidis; test: Toxicity in Staphylococcus epidermidis ATCC 35984 assessed as growth inhibition at 0.25 to 1 mg/ml; type: organism-based; conditions: in vivo
[5] = system: Staphylococcus epidermidis; test: Inhibition of Staphylococcus epidermidis ATCC 35984 biofilm formation at 0.5 mg/ml; type: functional
[6] = system: Staphylococcus epidermidis; test: Inhibition of Staphylococcus epidermidis ATCC 35984 biofilm formation at 0.125 mg/ml; type: functional, organism-based

`CC(C)C[C@@H]1NC(=O)[C@H](Cc2ccc(O)cc2)NC1=O` was tested, and the inhibition at 1000 µg/mL [1] was 85%, the inhibition at 250 µg/mL [2] was 60% and the inhibition [3] was “Active”. The Activity [4] was “Non-toxic”, the inhibition at 500 µg/mL [5] was 65% and the Activity [6] was “inactive”.
